Reference: article PMC6851181 (Scientific Reports, 2019)
Read-outs that look alike come from different tables or passages of the source.

Tests used:
[1] = Stability of IF in the plasma of mouse under various storage conditions (HPLC); type: in vitro ADME; conditions: n = 3
Procedure: The short-term stability was determined after the exposure of the spiked samples to room temperature for 24 h. The long-term stability was evaluated after storage of the standard spiked plasma samples at −70 °C for 30 days. The freeze/thaw cycle stability was assessed after two complete freeze/thaw cycles (−70 to 25 °C) on consecutive days. The analytes were considered to be stable in plasma when 85–115% of the initial concentrations were found.
Chromatography conditions for the study were as follows: the mobile phase consisted of acetonitrile, potassium phosphate buffer 0.025 M at pH 4.0, and triethylamine (12:88:0.025, v/v) with a final pH of 6.2. The flow-rate was 1.2 mL/min. The analytical column was operated at ambient temperature. The HPLC system consisted of a Beckman System Gold, 128 Solvent Module with ultra-violet detection at 200 nm. We used a 3.5 μm Xterra RP-8 (4.6 × 150 mm) column. Data were collected by the HPLC system and transferred to a Dell Pentium computer.

[2] = Mouse IF pharmacokinetic study: plasma IF by HPLC, alone or after GFJ or naringin pre-administration; type: in vivo, ICR male mice
Procedure: For the study, 7 groups with 12 animals each were intragastrically (ig) administered with 300 mg/kg of IF. Then, we obtained 1 mL of blood by cardiac puncture at 2.5, 5, 7.5, 10, 20, 30, and 60 min post-administration.
Blood samples were immediately centrifuged at 3500 rpm. Aliquots of 250 µL were stored at −70 °C until the quantification of IF plasmatic concentrations was carried out.
Besides in our research, 7 groups with 12 animals each were ig administered with naringin (250 mg/kg) to evaluate its influence on the concentration/time profiles of IF, a chemical that was ig administered 60 min later (300 mg/kg). Seven other groups were ig administered GFJ (20.8 µL/g) and 60 min later ig treated with 300 mg/kg of IF. In both assays, we obtained blood samples at 2.5, 5, 7.5, 10, 20, 30, and 60 min post-administration. With the indicated design we examined the influence of GFJ or naringin on the concentration/time profiles of IF.
For the blood treatment, after thawing, we added 250 μL of the internal standard (CF) to each sample, after which the plasma was deproteinized with methanol 1:1.5 (plasma-methanol), and centrifuged at 3500 rpm for 10 min. Subsequently, we transferred 450 μL of the supernatant to an Eppendorf tube containing 550 μL of phosphate buffer 0.01 N, pH 4.0. The solution was activated with 1 mL of methanol plus 1 mL of phosphate buffer 0.01 N, pH 4.0, and loaded to a Bond Elut-CH cartridge under reduced pressure. The cartridge was washed with 1 mL of acetonitrile plus phosphate buffer 0.01 N, pH 4.0 (10–90%) and it was eluted with 500 μL of acetonitrile plus phosphate buffer 0.025 N, pH 4.0 (40–60%). A volume of 20 μL were injected in the stabilized HPLC system.
The pharmacokinetic parameters of IF and their interaction with naringin or GFJ were calculated by non-compartmental assessment of data using the computer program WinNonlin (V4.0, Pharsight, Mountain View, CA, USA). The maximum plasma concentrations (Cmax) and their time of occurrence (Tmax) were both obtained directly from the measured data. The area under the plasma concentration-time curve, from time zero to the time of the last measurable concentration (AUC0-t) was calculated with the linear trapezoidal method. AUC0-∞ was calculated AUC0-t + Ct/λz, where Ct is the last measurable concentration and λz the constant rate of terminal elimination. The corresponding half-life elimination (t1/2) was then calculated as 0.693/λz. The results corresponding to Cmax were statistically analyzed with the ANOVA and the Student-Newman-Keuls tests. With respect to AUC0-t, Tmax, and t1/2 the analysis was made with the Kruskal-Wallis test.

[3] = IF only, 300 mg/kg ig, mouse plasma, 300 mg/kg
[4] = male, ICR, mouse, plasma, po, 300 mg/kg, GFJ 20.8 µL/g ig 1 h before IF 300 mg/kg ig, mouse plasma
[5] = male, ICR, mouse, plasma, po, 300 mg/kg, IF only, 300 mg/kg ig, mouse plasma
[6] = male, ICR, mouse, plasma, po, 300 mg/kg, naringin 250 mg/kg ig 1 h before IF 300 mg/kg ig, mouse plasma

O=P1(NCCCl)OCCCN1CCCl (stereo not drawn) [IF, ifosfamide]
Concentration found ([1]; freeze and thaw stability (−70 to 25 °C), two cycles, added 90 μg/mL): 81.34 ± 4.99 µg/mL | Concentration found ([1]; long-term (30 days, −70 °C), added 90 μg/mL): 108.34 ± 1.64 µg/mL | Concentration found ([1]; short-term (24 h, 25 °C), added 10 μg/mL): 12.31 ± 0.68 µg/mL | Concentration found ([1]; short-term (24 h, 25 °C), added 90 μg/mL): 100.11 ± 14.27 µg/mL | Cmax ([2]; GFJ 20.8 µL/g ig 1 h before IF 300 mg/kg ig, mouse plasma): 71.35 ± 3.57^a♣ μg/mL | AUC0−∞ [2, 3]: 2110.36 ± 114.98 µg·min/mL | Cmax [2, 3]: 58080 ± 5010 ng/mL | Tmax [2, 3]: 10.83 ± 1.28 min | t1/2 [2, 3]: 23.55 ± 1.86 min | AUC(0-inf) [2, 4]: 34200 ng·h/mL | half-life [2, 4]: 16.5 ± 1.43 min | Cmax ([2]; male, ICR, mouse, plasma, po, 300 mg/kg, GFJ 20.8 µL/g ig 1 h before IF 300 mg/kg ig, mouse plasma, read-out: Cmax): 71300 ng/mL | Tmax ([2]; male, ICR, mouse, plasma, po, 300 mg/kg, GFJ 20.8 µL/g ig 1 h before IF 300 mg/kg ig, mouse plasma, read-out: Tmax (converted)): 8.7 min | AUC(0-inf) [2, 5]: 35200 ng·h/mL | half-life [2, 5]: 23.5 min | Cmax ([2]; male, ICR, mouse, plasma, po, 300 mg/kg, IF only, 300 mg/kg ig, mouse plasma, read-out: Cmax): 58100 ng/mL | Tmax ([2]; male, ICR, mouse, plasma, po, 300 mg/kg, IF only, 300 mg/kg ig, mouse plasma, read-out: Tmax (converted)): 10.8 min | AUC(0-inf) [2, 6]: 37400 ng·h/mL | half-life [2, 6]: 26.8 ± 3.77 min | Cmax ([2]; male, ICR, mouse, plasma, po, 300 mg/kg, naringin 250 mg/kg ig 1 h before IF 300 mg/kg ig, mouse plasma, read-out: Cmax): 64100 ± 4370 ng/mL | Tmax ([2]; male, ICR, mouse, plasma, po, 300 mg/kg, naringin 250 mg/kg ig 1 h before IF 300 mg/kg ig, mouse plasma, read-out: Tmax (converted)): 5 min | Cmax ([2]; male, ICR, mouse, plasma, po, naringin 250 mg/kg ig 1 h before IF 300 mg/kg ig, mouse plasma, read-out: Cmax): 64100 ng/mL

C[C@@H]1O[C@@H](O[C@H]2[C@H](Oc3cc(O)c4c(c3)O[C@H](c3ccc(O)cc3)CC4=O)O[C@H](CO)[C@@H](O)[C@@H]2O)[C@H](O)[C@H](O)[C@H]1O [naringin, 4′,5,5-trihdroxy-flavanone-7-rhamnoglucoside]
Change of half-life (t1/2) of IF with respect to IF alone ([2]; naringin 250 mg/kg ig 1 h before IF 300 mg/kg ig, mouse): no change | Difference of AUC0−∞ of IF with respect to IF alone ([2]; naringin 250 mg/kg or GFJ 20.8 µL/g ig 1 h before IF 300 mg/kg ig, mouse): no statistical difference
